Columns and labels:
[1] = test system: Ragweed, Common, Ambrosia artemisifolia; assay: Postemergence herbicidal evaluation, AMBEL; assay type: in vivo, L.; conditions: 0.2500 kg/ha
Summary of the method: (§1)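 Approximately two-week-old seedlings received a spray of active compound equivalent to about 0.0157–0.500 kg/ha. The carrier was acetone/water (50/50) with 0.5% TWEEN 20. Plants were kept on greenhouse benches and assessed 0–9 versus control after four to five weeks.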

[2] = test system: Lambsquarters, Common, Chenopodium album; assay: Postemergence herbicidal evaluation, CHEAL; assay type: in vivo, L.; conditions: 0.2500 kg/ha
Summary of the method: as §1

[3] = test system: Barnyardgrass, Echinochloa crus-galli; assay: Postemergence herbicidal evaluation, ECHCG; assay type: in vivo, (L.) Beau; conditions: 0.2500 kg/ha
Summary of the method: as §1

[4] = test system: Soybean, Williams, Glycine max; assay: Postemergence herbicidal evaluation, GLXMAW; assay type: in vivo, (L.) Merr. cv Williams; conditions: 0.2500 kg/ha
Summary of the method: as §1

[5] = test system: Rice, Tebonnet, Oryza sativa; assay: Postemergence herbicidal evaluation, ORYSAT; assay type: in vivo, (L.) Tebonnet; conditions: 0.2500 kg/ha
Summary of the method: as §1

[6] = test system: Wheat, Winter, cv Riband, Triticum aestivum; assay: Postemergence herbicidal evaluation, TRZAWR; assay type: in vivo; conditions: 0.2500 kg/ha
Summary of the method: as §1

Corn, Field, Zea mays [7] = assay: Postemergence herbicidal evaluation, ZEAMX; assay type: in vivo, L.; conditions: 0.2500 kg/ha
Summary of the method: as §1

[8] = test system: Velvetleaf, Abutilon theophrasti; assay: Preemergence herbicidal evaluation, ABUTH; assay type: in vivo, Medic.; conditions: 0.2500 kg/ha
Summary of the method: (§2)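 Values are 0–9 visual ratings of stand, vigor, malformation, size, chlorosis and overall appearance relative to a control, scored 4 to 5 weeks after treatment. Test compound in aqueous acetone was sprayed onto soil right after seeding, at rates equivalent to about 0.0156–0.500 kg per hectare.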

[9] = test system: Sicklepod, Cassia obtusifolia; assay: Preemergence herbicidal evaluation, CASOB; assay type: in vivo, L.; conditions: 0.2500 kg/ha
Summary of the method: as §2

[10] = test system: Morningglory Spp., Ipomoea Spp.; assay: Preemergence herbicidal evaluation, IPOSS; assay type: in vivo; conditions: 0.2500 kg/ha
Excerpt: Results of herbicide evaluation are expressed on a rating scale (0-9). The scale is based upon a visual observation of plant stand, vigor, malformation, size, chlorosis and overall plant appearance as compared with a control.
The preemergence herbicidal activity of the test compounds of the present invention is exemplified by the following tests in which the seeds of a variety of monocotyledonous and dicotyledonous plants are separately mixed with potting soil and planted on top of approximately one inch of soil in separate pint cups. After planting, the cups are sprayed with the selected aqueous acetone solution containing test compound in sufficient quantity to provide the equivalent of about 0.0156 to 0.500 kg per hectare of test compound per cup. The treated cups are then placed on greenhouse benches, watered and cared for in accordance with conventional greenhouse procedures. From four to five weeks after treatment, the tests are terminated and each cup is examined and rated according to the rating system provided in Example 185.
The compounds evaluated are reported by compound number given in Example 185.

[11] = test system: Barnyardgrass, Echinochloa crus-galli; assay: Preemergence herbicidal evaluation, ECHCG; assay type: in vivo, (L.) Beau; conditions: 0.2500 kg/ha
Summary of the method: as §2

[12] = test system: Foxtail, Green, Setaria viridis; assay: Preemergence herbicidal evaluation, SETVI; assay type: in vivo, (L.) Beau; conditions: 0.2500 kg/ha
Summary of the method: as §2

Corn, Field, Zea mays [13] = assay: Preemergence herbicidal evaluation, ZEAMX; assay type: in vivo, L.; conditions: 0.2500 kg/ha
Summary of the method: as §2

[14] = test system: ECHORC Watergrass (Calif.); assay: Preemergence weed control, flooded paddy (Table III); assay type: in vivo, Echinochloa oryzoides; set-up: scale not given here
Experimental: (§3) Preemergence herbicidal activity under flooded paddy conditions is determined as follows: plant seeds or propagating organs are planted in the top 0.5 cm of silt loam soil in 32 oz. plastic containers with a diameter of 10.5 cm and no drainage holes. Water is added to these containers and maintained at 1.5 to 3 cm above the soil surface for the duration of the experiment. The test compounds are applied as aqueous/acetone mixtures 50/50 v/v pipetted directly into the flood water to give the equivalent of about 0.0313 to 0.500 kg/ha of active ingredient. The treated containers are placed on greenhouse benches and cared for in accordance with conventional greenhouse procedures. Three to four weeks after treatment, the test is terminated and each container is examined and herbicidal effect rated according to the rating system provided in Example 185. The compounds evaluated are reported by compound number given in Example 185.

CYPIR Rice Flatsedge = assay: as above; assay type: in vivo, Cyperus iria; set-up: scale not given here
Experimental: as §3

[15] = test system: SAGPY Arrowhead (Pygmaea); assay: as above; assay type: in vivo, Sagittaria pygmaea; set-up: scale not given here
Experimental: as §3

[16] = test system: ECHORC Watergrass (Calif.); assay: Postemergence weed control, flooded paddy (Table IV); assay type: in vivo, Echinochloa oryzoides; set-up: scale not given here
Excerpt: Plastic containers containing weeds which are 3 to 5 cm tall and rice seedlings at the 1.5 to 2.5 leaf stage are flooded with water. The water is maintained at 1.5 to 3 cm above the soil surface for the duration of the experiment. Test compounds are applied as aqueous/acetone mixtures 50/50 v/v directly into the flood water to provide the equivalent of about 0.0313 to 0.500 kg/ha of active ingredient. The treated containers are placed on greenhouse benches and cared for in accordance with conventional greenhouse procedures. Three to four weeks after treatment, the test is terminated and each container is examined and herbicidal effect rated according to the rating system provided in Example 185. The compounds evaluated are reported by compound number given in Example 185.

SMILES | herbicide rating (0-9) [1] | herbicide rating (0-9) [3] | herbicide rating (0-9) [4] | herbicide rating (0-9) [5] | herbicide rating (0-9) [6] | herbicide rating (0-9) (Corn, Field, Zea mays [7]) | herbicide rating (0-9) [8] | herbicide rating (0-9) [9] | herbicide rating (0-9) [10] | herbicide rating (0-9) [11] | herbicide rating (0-9) [12] | herbicide rating (0-9) (Corn, Field, Zea mays [13]) | herbicidal effect rating ([14]; 0.0313 kg/ha) | herbicidal effect rating ([14]; 0.0625 kg/ha) | herbicidal effect rating ([14]; 0.1250 kg/ha) | herbicidal effect rating ([14]; 0.2500 kg/ha) | herbicidal effect rating ([14]; 0.5000 kg/ha) | herbicidal effect rating (CYPIR Rice Flatsedge; 0.0313 kg/ha) | herbicidal effect rating (CYPIR Rice Flatsedge; 0.0625 kg/ha) | herbicidal effect rating (CYPIR Rice Flatsedge; 0.1250 kg/ha) | other results
COc1cc(C)ccc1-c1nsc2ccc(-n3c(=O)cc(C(F)(F)F)n(C)c3=O)cc12 [Compound 7, 3-[3-(2-Methoxy-p-tolyl)-1,2-benzisothiazol-5-yl]-1-methyl-6-(trifluoromethyl)-2,4(1H,3H)-pyrimidinedione] | 9.0 | 8.0 | 9.0 | 6.5 | 7.0 | 7.0 | 9.0 | 9.0 | 9.0 | 9.0 | 9.0 | 7.0 | 9.0 | 9.0 | 9.0 | 9.0 | 9.0 | 9.0 | 9.0 | 9.0 | herbicide rating (0-9) [2]: 9.0; herbicidal effect rating (CYPIR Rice Flatsedge; 0.2500 kg/ha): 9.0; herbicidal effect rating (CYPIR Rice Flatsedge; 0.5000 kg/ha): 9.0; herbicidal effect rating ([15]; 0.0313 kg/ha): 6.0; herbicidal effect rating ([15]; 0.0625 kg/ha): 8.0; herbicidal effect rating ([15]; 0.1250 kg/ha): 9.0; herbicidal effect rating ([15]; 0.2500 kg/ha): 9.0; herbicidal effect rating ([15]; 0.5000 kg/ha): 9.0; herbicidal effect rating ([16]; 0.1250 kg/ha): 9.0; herbicidal effect rating ([16]; 0.2500 kg/ha): 9.0; herbicidal effect rating ([16]; 0.5000 kg/ha): 9.0
COC(=O)COc1cc(C)ccc1-c1nsc2ccc(-n3c(=O)cc(C(F)(F)F)n(C)c3=O)cc12 [Compound 8, Methyl {{6-{5-[3,6-dihydro-3-methyl-4-(trifluoromethyl)-2,6-dioxo-1(2H)-pyrimidinyl]-1,2-benzisothiazol-3-yl}-m-tolyl}oxy}acetate] | 9.0 | 9.0 | 9.0 | 8.5 | 9.0 | 9.0 | 9.0 | 9.0 | 9.0 | 9.0 | 9.0 | 9.0 | 9.0 | 9.0 | 9.0 | 9.0 | 9.0 | 9.0 | 9.0 | 9.0 | herbicide rating (0-9) [2]: 9.0; herbicidal effect rating (CYPIR Rice Flatsedge; 0.2500 kg/ha): 9.0; herbicidal effect rating (CYPIR Rice Flatsedge; 0.5000 kg/ha): 9.0; herbicidal effect rating ([15]; 0.0313 kg/ha): 6.0; herbicidal effect rating ([15]; 0.0625 kg/ha): 9.0; herbicidal effect rating ([15]; 0.1250 kg/ha): 9.0; herbicidal effect rating ([15]; 0.2500 kg/ha): 9.0; herbicidal effect rating ([15]; 0.5000 kg/ha): 9.0; herbicidal effect rating ([16]; 0.1250 kg/ha): 9.0; herbicidal effect rating ([16]; 0.2500 kg/ha): 9.0; herbicidal effect rating ([16]; 0.5000 kg/ha): 9.0
COC(=O)C(C)Oc1cc(C)ccc1-c1nsc2ccc(-n3c(=O)cc(C(F)(F)F)n(C)c3=O)cc12 (centres unmarked) [Compound 9, Methyl 2-{{6-{5-[3,6-dihydro-3-methyl-4-(trifluoromethyl)-2,6-dioxo-1(2H)-pyrimidinyl]-1,2-benzisothiazol-3-yl}-m-tolyl}oxy}propionate] | 9.0 | 9.0 | 9.0 | 9.0 | 9.0 | 9.0 | 9.0 | 9.0 | 9.0 | 9.0 | 9.0 | 9.0 | 9.0 | 9.0 | 9.0 | 9.0 | 9.0 | 9.0 | 9.0 | 9.0 | herbicidal effect rating (CYPIR Rice Flatsedge; 0.2500 kg/ha): 9.0; herbicidal effect rating (CYPIR Rice Flatsedge; 0.5000 kg/ha): 9.0; herbicidal effect rating ([15]; 0.0313 kg/ha): 0.0; herbicidal effect rating ([15]; 0.0625 kg/ha): 2.0; herbicidal effect rating ([15]; 0.1250 kg/ha): 8.0; herbicidal effect rating ([15]; 0.2500 kg/ha): 8.0; herbicidal effect rating ([15]; 0.5000 kg/ha): 9.0; herbicidal effect rating ([16]; 0.1250 kg/ha): 9.0; herbicidal effect rating ([16]; 0.2500 kg/ha): 9.0; herbicidal effect rating ([16]; 0.5000 kg/ha): 9.0

From patent US6156700A, “3-(1,2-Benzisothiazol- and isoxazol-5-yl)-2,4(1H,3H)-pyrimidinedione or thione and 3-(1,2-benzisothiazol- and isoxazol-5-yl)-4(3H)-pyrimidinone or thione herbicidal agents” (American Cyanmid Company, priority 1998, dated 2000)
